Entries after “also recorded” stand apart in the source; their conditions may differ. Like-named read-outs stand apart in the source and are kept apart here.
What was measured:
[1] = tested on: A549 (lung adenocarcinoma); assay: MTT proliferation assay, A549; assay type: cell-based; details: Homo sapiens, 72 h
How it was run: (§1)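 Following a 24 h attachment at 5000 cells per well, cultures in DMEM supplemented with 10% FBS were incubated with compound for 72 h; MTT formazan was then quantified at 570 nm to compute IC50.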

[2] = tested on: HepG2 (hepatocellular carcinoma); assay: MTT proliferation assay, HepG2; assay type: cell-based; details: Homo sapiens, 72 h
How it was run: as §1

[3] = tested on: MCF-7 (breast adenocarcinoma); assay: MTT proliferation assay, MCF-7; assay type: cell-based, Human; details: for IC50: Homo sapiens, MCF7, 72 h, MTT
How it was run: as §1

[4] = DPPH radical scavenging assay; assay type: biochemical
How it was run: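 Compounds at 0.06, 0.12, 0.18, 0.23, 0.25 and 0.28 mM reacted with the stable DPPH• radical. Absorbance at 517 nm was read 5 and 10 min after mixing to follow DPPH reduction, with L-ascorbic acid as the reference.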

HFF-1 cells = assay: Seahorse XF Cell Mito Stress Test, HFF-1; assay type: cell-based, Human; details: HFF-1, 24 h
Protocol: The Seahorse XF Cell Mito Stress Test was used for measurements of mitochondrial respiration by direct assessment of the oxygen consumption rate (OCR), of treated and untreated cells on the Seahorse XFe24 Analyzer, (Agilent, Santa Clara, CA, USA). Key parameters of the mitochondrial function were measured by direct assessment of the OCR, by use of the Mito Stress Test (Agilent, Agilent, Santa Clara, CA, USA). The Mito Stress Test uses modulators of respiration that target components of the electron transport chain in the mitochondria. The compounds added to the reaction were: oligomycin, mitochondrial oxidative phosphorylation uncoupler carbonyl cyanide-4-(trifluoromethoxy)phenylhydrazone (FCCP), and the mix of rotenone and antymicin A. These were directly injected to the cell growth medium containing cells treated with selected L-ASA derivatives to determine the production of ATP, respiration at maximal level, and the non-mitochondrial respiration. Measured parameters were used for calculation of the proton leakage, spare respiratory capacity, and basal respiration. The assay was performed according to the manufacturer’s instructions (SeaHorse—Mito Stress Test: Agilent, Santa Clara, CA, USA). Briefly, selected compound 4e was tested due to its selective antiproliferative effect on MCF-7 cells. MCF-7 cells were treated for 24 h with compound 4e at 3 different concentrations (at 12.72 µM, 25.44 µM and 50.88 µM) while the cells HFF-1 were treated for 24 h with compound 4e at concentrations 50 µM, 100 µM, and 200 µM. […] The experiment was performed with biological duplicates.

[5] = tested on: HCT-116 (colorectal carcinoma); assay: MTT proliferation assay, HCT-116; assay type: cell-based; details: Homo sapiens, 72 h
How it was run: as §1

[6] = tested on: HeLa (cervical carcinoma); assay: MTT proliferation assay, HeLa; assay type: cell-based; details: Homo sapiens, 72 h
How it was run: as §1

[7] = tested on: CFPAC-1 (ductal pancreatic adenocarcinoma); assay: MTT proliferation assay, CFPAC-1; assay type: cell-based; details: Homo sapiens, 72 h
How it was run: as §1

[8] = tested on: HFF-1 (foreskin fibroblasts); assay: MTT proliferation assay, HFF-1; assay type: cell-based; details: Homo sapiens, 72 h, normal foreskin fibroblasts
Protocol: Human tumor cell lines HeLa (cervical carcinoma), SW620 (colorectal adenocarcinoma, metastatic), A549 (lung adenocarcinoma), MCF−7 (breast adenocarcinoma), CFPAC-1 (pancreatic adenocarcinoma, metastatic), HCT-116 (colorectal carcinoma), and HepG2 (hepatocellular carcinoma), and normal cell lines HFF-1 (foreskin fibroblasts) and WI-38 (immortalized human lung fibroblast), were from the US American Type Culture Collection (ATCC, Manassas, VA, USA). Cells were cultured in a liquid nutrient medium (Dulbecco’s Modified Eagle Medium, LONZA, Basel, Switzerland) supplemented with 10% fetal bovine serum (FBS, Gibco, Grand Island, NY, USA), 2 mM L-glutamine (GIBCO, Grand Island, NY, USA), 100 μg/mL penicillin, and 100 μg/mL streptomycin (LONZA, Basel, Switzerland), in an incubator (NÜVE, Ankara, Turkey), at a humid atmosphere with 5% CO2 at 37 °C. Trypsin/EDTA Solution (Lonza, Basel, Switzerland), was used for cell passaging and cell detachment.
Adherent cells were seeded on 96 well microtiter plates (Falcon, New York, NY, USA) at a seeding density of 5000 cells per well, added in 150 μL of cell suspension in a nutrient medium. 24 h after seeding, cells were treated with compound 4b–4g, 4i, 4k–4t, 4v, 7c–7g, and 7i–7q dilutions in the range of 0.01 μM to 100 μM. L-ascoric acid (Sigma Aldrich, Darmstadt, Germany) and Carboxyamidotriazole (Sigma Aldrich, Darmstadt, Germany) were used as control compounds. Incubation of the cells with the compounds were performed for 72 h in a 5% CO2, in humid atmosphere at 37 °C. After incubation, nutrient medium was removed and 40 μL of the MTT reagent ([…]-2,5-diphenyltetrazole bromide (Invitrogen, Carlsbad, CA, USA) was added to each well. 3 h after incubation, 160 μL of DMSO (VWR CHEMICALS, Radnor, PA, USA) were added to each well to dissolve the crystals of purple formazane. The absorbance was measured at 570 nm (TECAN SUNRISE Microtiter plate reader (Männedorf, Switzerland). The experimentally measured optical densities (OD) were converted to the PG (percentage of growth), using the formulas according to the protocol assumed by NIH (National Institute of Health). The IC50 values (concentration causing 50% cell growth inhibition) for each compound were calculated by regression analysis of the survival count curve of the concentrations of the tested compounds. The results were processed in Excel 2010 (Microsoft, Redmond, WA, USA).

[9] = 5 min treatment, read-out: IC50 of DPPH• inhibition, Treatm. 5 min
[10] = 10 min treatment, read-out: IC50 of DPPH• inhibition, Treatm. 10 min

| IC50 [1] [µM] | IC50 [2] [µM] | IC50 [3] [µM] | IC50 [4, 9] [µM] | IC50 [4, 10] [µM] | cellular metabolism and mitochondrial activity (HFF-1 cells; 100 µM) | IC50 [5] [µM] | IC50 [6] [µM] | IC50 [7] [µM] | pIC50 (negative logarithm of DPPH• IC50) ([4]; calculated from IC50 values of Table 1) | decrease of basal cell respiration and ATP production, switch towards non-mitochondrial respiration (HFF-1 cells; higher concentrations) | Compound | selectivity index, SI ([3]; WI-38 versus MCF-7) | basal cell respiration and ATP production (HFF-1 cells) | IC50 [8] [µM] |
| --- | --- | --- | --- | --- | --- | --- | --- | --- | --- | --- | --- | --- | --- | --- |
| 25.4 | > 100 | 6.72 | 200 ± 10 | 190 ± 10 | slightly positive effect | > 100 | > 100 | > 100 | – | – | O=C1O[C@H]([C@@H](O)Cn2cc(-c3ccc(Br)cc3)nn2)C(O)=C1O [Compound 4e, 6-[4-(4-bromophenyl)-1,2,3-triazol-1-yl]-6-deoxy-L-ascorbic acid] | 11 | did not affect the basal cell respiration or ATP production; also recorded: did not affect the basal cell respiration and ATP production | > 100 |
| > 100 | > 100 | > 100 | 180 ± 60 | 170 ± 50 | – | > 100 | > 100 | > 100 | 3.75 | this effect was not observed | O=C1O[C@H]([C@@H](O)CO)C(O)=C1O [L-ASA, L-ascorbic acid] | – | – | > 100 |
